Tests used:
mice = experiment: Biocompatibility / immunotoxicity in mice (application behind the ears); details: mouse, in vivo
Description: Specifically, 25 μL each of phosphate-buffered saline (PBS) as a negative control, eugenol (Eug) inducing immunotoxicity as a positive control, and a C2 compound in the PDDS series were applied behind the ears of mice for 3 days, and after 6 days, the change in body weight, the feed intake and water intake, the weight of auricular lymph nodes, the number of lymph node cells, the stimulation index, and the concentrations of histamine and immunoglobulin E in the blood were measured.

red blood cells = experiment: Hemolysis analysis of mouse red blood cells; type: cell-based; details: 37° C., 1 hour, absorption 492 nm
Description: In addition, for hemolysis analysis, a blood sample was obtained from the heart of the mouse anesthetized with isoflurane, and then centrifuged at 4° C. (3000 rpm, 3 min) with cold 1×PBS (1 mL, 3 times) to collect red blood cells. The purified red blood cells were treated with 100 μL of 8% (v/v) each of PBS and the C2 compound and further incubated at 37° C. for 1 hour. The mixture was then collected using centrifugation at 4° C.

[1] = tested on: B16F10 (mouse murine melanoma cell line) cells
Description: Specifically, B16F10 (mouse murine melanoma cell line) cells were transplanted into the left or right thigh (subcutaneously) of the mouse (6-week-old female Balb/c nude) on day 0 to induce melanoma tumor, and then after 10 days later (tumor size=about 200 mm^3), melanoma model mice were divided into 3 groups (5 mice per group), and each group was administered with 100 μL of PBS, SN-38 (3 mM), or C2+SN-38 (C2 compound encapsulated with SN-38 anticancer agent) by topical application on days 10, 12, 13, and 14 ((a) of FIG. 27). In order to determine toxicity and therapeutic effects in melanoma model mice for 16 days, changes in body weight and tumor volume were measured every 2 to 3 days. At the end of the experiment (day 15), the body of each mouse was photographed with a digital camera to determine the shape and size of the tumor, and at the end of the experiment (day 16), the tumor was extracted from the mouse. The extracted tumor tissue (harvested tumor) was photographed with a digital camera, and the size and volume thereof were measured. In addition, for hemolysis analysis, red blood cells purified from the blood sample obtained from the mouse heart were treated with 100 μL of PBS (negative control), SN-38 (3 mM), C2+SN-38, and Triton-X (0.1% (v/v); positive control) at 8% (v/v), respectively, and further incubated at 37° C. for 1 hour, and then the mixture was centrifuged at 4° C. (3000 rpm, 3 min) and the UV/vis absorption peak (492 nm) of the final obtained supernatant was measured at 25° C.

skin of mouse = experiment: Skin penetration efficiency, fluorescence of oil red O in skin sections; type: in vivo
Description: Specifically, 100 μL each of oil red O-loaded C2 compound (C2; […]) and oil red O (OR; 100 μL, stock solution: 24 μM in PBS (1% ethanol)) were applied to the skin, and after 24 and 48 hours, the skin tissue was sectioned, and then the fluorescence of oil red O was tracked (excitation: 559 nm, detection: 636±20 nm) using a fluorescence microscope, and quantified and plotted using the Image-J program.
Here, (b, c) of FIG. 25 and (e, f) of FIG. 25 show the fluorescence intensity plot of Oil red O or the C2 compound (C2) loaded with Oil red O along the yellow dotted line in the images of (a) of FIG. 25 and (d) of FIG. 25, respectively.

[2] = Water contact angle on coated slide glass; type: physicochemical; details: distilled water on coated slide glass
Description: Specifically, a monomer and PDDS series compounds were applied onto a slide glass from Marienfeld using a 100 μL pipette, respectively, and then the monomer and the PDDS series were uniformly coated on the slide glass while the slide glass was tilted left and right. The monomer and the PDDS series were coated for about 1 hour in a fume hood, and then 100 μL each of the monomer and PDDS series were dropped again, and coated without an empty portion of the slide glass by repeating the process two more times. Thereafter, distilled water was dropped on the surface of the coated glass slide using a contact angle meter from Kruss and the contact angles were analyzed.

In the case of `C=CCc1ccc(O)c(OC)c1` [eugenol], the “feed intake and water intake” value (mice) is reported as “took less feed and water”, the “number of lymph node cells (BrdU assay)” value (mice) is reported as “statistically significant increase” and the stimulation index (mice) is reported as “statistically significant increase”.

In the case of `CCc1c2c(nc3ccc(O)cc13)-c1cc3c(c(=O)n1C2)COC(=O)[C@]3(O)CC` [SN-38, 7-ethyl-10-hydroxycamptothecin], the “hemolysis rate in red blood cells” value (red blood cells) is reported as “severe hemolysis”, the “change in body weight” value ([1]; melanoma xenograft mouse, topical on days 10, 12, 13, 14) is reported as “no significant change” and the “average tumor volume of extracted tumor” value ([1]; tumor extracted day 16) is reported as 1689±498.6 mm^3. For the same compound, the “tumor growth / tumor size of extracted tumor tissue” value ([1]; tumor extracted day 16) was “only slightly reduced tumor growth”.

For `Cc1ccc(C)c(N=Nc2cc(C)c(N=Nc3c(O)ccc4ccccc34)cc2C)c1` [oil red O], the “absorption of oil red O in skin tissue (fluorescence)” value (skin of mouse; 24 hours after application) was “hardly absorbed into the subcutaneous tissue” and the “absorption of oil red O in skin tissue (fluorescence)” value (skin of mouse; 48 hours after application) was “hardly absorbed into the subcutaneous tissue”.

With `C[Si]1(C)CC[Si](C)(C)O1` [monomer, 2,2,5,5-tetramethyl-2,5-disila-1-oxacyclopentane] the Contact angle [2] was 69.0±1.2 °.

Source: patent publication US20240301141A1, “SILICONE POLYMER COMPOUND AND TRANSDERMAL DELIVERY SYSTEM COMPRISING SAME” (UNIVERSITY-INDUSTRY COOPERATION GROUP OF KYUNG HEE …, priority 2021, published 2024)
